The source of these data is PubChem BioAssay (NCI).

Some test systems named below: UACC-257 melanoma; U251 CNS; SK-MEL-28 melanoma; ACHN renal; T-47D breast; PC-3 prostate; K-562 leukemia; MDA-MB-231 breast; SK-MEL-5 melanoma; CAKI-1 renal.
What all share (assay): NCI-60 cell line screen, 48 h

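48-hour exposure; five concentrations; linearly interpolated endpoints. Here, GI50 denotes the concentration required for 50% inhibition of growth. TGI: concentration producing complete growth inhibition.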

In the case of `CC(=O)c1ccc2c(c1)N(CCCN1CCN(CCO)CC1)c1ccccc1S2`, the GI50 in the experiment on UACC-257 melanoma is 1.85 µM; in the experiment with U251 CNS it was 1.94 µM; in the experiment on SK-MEL-28 melanoma, 1.73 µM; in the experiment with ACHN renal, 2.98 µM; in the experiment on T-47D breast it was 1.94 µM; with PC-3 prostate, 2.4 µM. Moreover, the GI50 in the experiment on K-562 leukemia is 2.52 µM; in the experiment with MDA-MB-231 breast, 1.96 µM; in the experiment on SK-MEL-5 melanoma, 1.72 µM; with CAKI-1 renal, 1.73 µM. The TGI with UACC-257 melanoma is 3.51 µM; in the experiment with U251 CNS, 4.06 µM; in the experiment with SK-MEL-28 melanoma, 3.23 µM; with ACHN renal, 11.4 µM; in the experiment with T-47D breast it was 5.2 µM; with PC-3 prostate, 9.35 µM. For the same compound, the TGI was > 23 µM with K-562 leukemia, 4.51 µM in the experiment with MDA-MB-231 breast, 3.14 µM in the experiment with SK-MEL-5 melanoma and 4.22 µM in the experiment with CAKI-1 renal.

In the case of `CCCc1nc(Cl)nc(Cl)c1Cl`, the TGI with UACC-257 melanoma came out at 2 µM; in the experiment with U251 CNS, 2.05 µM; in the experiment with SK-MEL-28 melanoma it was 2.05 µM; in the experiment on ACHN renal it was 1.62 µM; with T-47D breast, 4.49 µM; in the experiment with PC-3 prostate it was 1.6 µM. Besides, the TGI with K-562 leukemia is 0.118 µM; in the experiment with MDA-MB-231 breast, 2.07 µM; in the experiment on SK-MEL-5 melanoma it was 3.21 µM; in the experiment on CAKI-1 renal, 0.433 µM.

`COc1ccc(-c2nc(-c3nc4cc(Cl)c(F)cc4[nH]3)c3ccccn23)cc1`: the GI50 was 3.15 µM in the experiment on UACC-257 melanoma; 6.67 µM with U251 CNS; > 100 µM in the experiment on SK-MEL-28 melanoma; 7.34 µM in the experiment on ACHN renal; 3.54 µM with T-47D breast; 4.58 µM with PC-3 prostate. Besides, the GI50 in the experiment with K-562 leukemia was 4.84 µM; with MDA-MB-231 breast it was 5.82 µM; in the experiment on SK-MEL-5 melanoma, 2.22 µM; in the experiment on CAKI-1 renal, 5.35 µM. Moreover, the TGI in the experiment on UACC-257 melanoma is 13.2 µM; in the experiment with U251 CNS, > 100 µM; in the experiment on SK-MEL-28 melanoma, > 100 µM; in the experiment on ACHN renal, > 100 µM; in the experiment on T-47D breast it was 33.1 µM; in the experiment with PC-3 prostate, > 100 µM. Moreover, the TGI in the experiment with K-562 leukemia was > 100 µM; with MDA-MB-231 breast, > 100 µM; in the experiment on SK-MEL-5 melanoma it was 6.79 µM; in the experiment on CAKI-1 renal, > 100 µM.

Regarding `Cn1cc(-c2cc(-c3cn(C)c4ccc(Cl)cc34)[nH]n2)c2cc(Cl)ccc21`, the GI50 was 4.26 µM with UACC-257 melanoma; 3.37 µM with U251 CNS; 4.8 µM with SK-MEL-28 melanoma; 3.23 µM in the experiment with ACHN renal; 4.06 µM in the experiment on T-47D breast; 3.05 µM in the experiment with PC-3 prostate. The GI50 was 2.78 µM in the experiment on K-562 leukemia, 2.95 µM in the experiment on MDA-MB-231 breast, 1.79 µM in the experiment on SK-MEL-5 melanoma and 1.7 µM with CAKI-1 renal. For the same compound, the TGI in the experiment on UACC-257 melanoma is 34.2 µM; with U251 CNS, 12.9 µM; in the experiment on SK-MEL-28 melanoma it was 79.6 µM; in the experiment on ACHN renal it was 12.8 µM; in the experiment on T-47D breast it was 20.7 µM; in the experiment with PC-3 prostate, 14.2 µM. For the same compound, the TGI came out at 5.98 µM in the experiment with K-562 leukemia, 15.1 µM with MDA-MB-231 breast, 3.6 µM in the experiment with SK-MEL-5 melanoma and 6.05 µM in the experiment on CAKI-1 renal.

Take `Nc1nc(N)c2cc(Sc3ccc4ccccc4c3)ccc2n1`: the TGI in the experiment with UACC-257 melanoma was 4.61 µM; in the experiment on U251 CNS, 3.38 µM; in the experiment on SK-MEL-28 melanoma, 2.9 µM; in the experiment on ACHN renal, 5.15 µM; with T-47D breast, 4.04 µM; in the experiment with PC-3 prostate, 6.12 µM. The TGI in the experiment with K-562 leukemia is 1.88 µM; in the experiment with MDA-MB-231 breast, 5.28 µM; with SK-MEL-5 melanoma, 2.24 µM; with CAKI-1 renal it was 15.7 µM. Besides, the GI50 with SK-MEL-28 melanoma was 1.54 µM.

In the case of `C/C(=C(/c1ccccc1)c1ccc(OCC(O)CNCCN2CCOCC2)cc1)c1ccccc1` (stereo unspecified), the GI50 with UACC-257 melanoma was 2.02 µM; in the experiment with U251 CNS, 2.03 µM; in the experiment on SK-MEL-28 melanoma, 1.75 µM; in the experiment with ACHN renal, 3.31 µM; with T-47D breast it was 3.49 µM; with PC-3 prostate, 2.78 µM. For the same compound, the GI50 was 1.75 µM in the experiment on K-562 leukemia, 1.78 µM in the experiment with MDA-MB-231 breast, 1.77 µM in the experiment with SK-MEL-5 melanoma and 1.67 µM in the experiment with CAKI-1 renal. Also, the TGI with UACC-257 melanoma is 4.07 µM; in the experiment with U251 CNS, 4.52 µM; in the experiment on SK-MEL-28 melanoma, 3.25 µM; with ACHN renal it was 11.7 µM; in the experiment on T-47D breast, 11.3 µM; in the experiment on PC-3 prostate it was 10.2 µM. Further, the TGI with K-562 leukemia was 4.26 µM; in the experiment with MDA-MB-231 breast it was 3.83 µM; with SK-MEL-5 melanoma, 3.19 µM; in the experiment on CAKI-1 renal it was 3.49 µM.

Take `CC(/C=C/C(O)=C1/C(=O)CNC1=O)=C\[C@@H](C)[C@H]1O[C@@]2(C)O[C@H](C(=O)[C@@H]3O[C@@]32C)[C@@H]1C`: the TGI in the experiment on UACC-257 melanoma was 35.6 µM; in the experiment with U251 CNS, 54.9 µM; in the experiment with SK-MEL-28 melanoma, 38.7 µM; in the experiment with ACHN renal, 41.9 µM; in the experiment on T-47D breast it was 37.3 µM; in the experiment with PC-3 prostate it was 31.8 µM. Further, the TGI in the experiment on K-562 leukemia is > 100 µM; in the experiment with MDA-MB-231 breast it was 38.1 µM; in the experiment with SK-MEL-5 melanoma it was 40.4 µM; in the experiment with CAKI-1 renal it was 57 µM.

In the case of `COc1cc(OCc2cccc(-c3ccccc3)c2C)cc(OC)c1CN1CCCCC1C(=O)NCCOCCOCCN` (stereo unspecified), the GI50 was 1.83 µM in the experiment on UACC-257 melanoma; 2.1 µM in the experiment on U251 CNS; 1.75 µM with SK-MEL-28 melanoma; 3.43 µM in the experiment with ACHN renal; 1.77 µM in the experiment with T-47D breast; 2.76 µM in the experiment on PC-3 prostate. The GI50 was 1.86 µM in the experiment with K-562 leukemia, 1.8 µM in the experiment with MDA-MB-231 breast, 1.76 µM with SK-MEL-5 melanoma and 1.94 µM with CAKI-1 renal. Also, the TGI with UACC-257 melanoma is 3.68 µM; with U251 CNS, 4.44 µM; with SK-MEL-28 melanoma, 3.22 µM; in the experiment with ACHN renal, 13 µM; with T-47D breast it was 3.77 µM; in the experiment on PC-3 prostate it was 11.6 µM. In addition, the TGI came to 4.4 µM in the experiment on K-562 leukemia, 3.84 µM in the experiment with MDA-MB-231 breast, 3.21 µM in the experiment with SK-MEL-5 melanoma and 5.96 µM in the experiment on CAKI-1 renal.
